According to ChEMBL document CHEMBL1137682, “Synthesis, characterization and structure-activity relationship analysis of novel depsides as potential antibacterials” (2009):
≈ marks a conversion by molar mass, not a printed value.

Key:
Format in all cases: functional
Bacillus subtilis = test: Antibacterial activity against Bacillus subtilis ATCC 6633 after 24 hrs by MTT assay; conditions: ATCC 6633, 24 h
Staphylococcus aureus = test: Antibacterial activity against Staphylococcus aureus ATCC 6538 after 24 hrs by MTT assay; conditions: ATCC 6538, 24 h
Enterococcus faecalis = test: microbe, parasite or virus in culture; conditions: ATCC 9790, 24 h
Pseudomonas aeruginosa = test: Antibacterial activity against sPseudomonas aeruginosa ATCC 13525 after 24 hrs by MTT assay; conditions: ATCC 13525, 24 h
Escherichia coli = test: Antibacterial activity against Escherichia coli ATCC 35218 after 24 hrs by MTT assay; conditions: ATCC 35218, 24 h
Enterobacter cloacae = test: Antibacterial activity against Enterobacter cloacae ATCC 13047 after 24 hrs by MTT assay; conditions: ATCC 13047, 24 h

| SMILES | MIC (Bacillus subtilis) | MIC (Staphylococcus aureus) | MIC (Enterococcus faecalis) | MIC (Pseudomonas aeruginosa) | MIC (Escherichia coli) | MIC (Enterobacter cloacae) |
| --- | --- | --- | --- | --- | --- | --- |
| CC1(C)S[C@@H]2[C@H](NC(=O)Cc3ccccc3)C(=O)N2[C@H]1C(=O)O [PENICILLIN G] | 1.56 µg/mL (≈ 4.67 µM) | 1.56 µg/mL (≈ 4.67 µM) | 1.56 µg/mL (≈ 4.67 µM) | 6.25 µg/mL (≈ 18.7 µM) | 6.25 µg/mL (≈ 18.7 µM) | 3.12 µg/mL (≈ 9.35 µM) |
| CCOC(=O)Cc1ccccc1OC(=O)c1ccc(C)cc1 | 25 µg/mL (≈ 83.8 µM) | > 50 µg/mL | > 50 µg/mL | 12.5 µg/mL (≈ 41.9 µM) | 3.12 µg/mL (≈ 10.5 µM) | 6.25 µg/mL (≈ 20.9 µM) |
| COC(=O)Cc1ccccc1OC(=O)Cc1ccc(Br)cc1 | 6.25 µg/mL (≈ 17.2 µM) | 6.25 µg/mL (≈ 17.2 µM) | 6.25 µg/mL (≈ 17.2 µM) | 25 µg/mL (≈ 68.8 µM) | > 50 µg/mL | 3.12 µg/mL (≈ 8.6 µM) |
| CCOC(=O)Cc1ccccc1OC(=O)Cc1cccc(OC)c1 | > 50 µg/mL | > 50 µg/mL | 12.5 µg/mL (≈ 38.1 µM) | 6.25 µg/mL (≈ 19 µM) | 25 µg/mL (≈ 76.1 µM) | > 50 µg/mL |
| CCOC(=O)Cc1ccccc1OC(=O)Cc1ccc(F)cc1 | 12.5 µg/mL (≈ 39.5 µM) | 25 µg/mL (≈ 79 µM) | 6.25 µg/mL (≈ 19.8 µM) | > 50 µg/mL | 25 µg/mL (≈ 79 µM) | 12.5 µg/mL (≈ 39.5 µM) |
| NC[C@H]1O[C@H](O[C@H]2[C@H](O)[C@@H](O[C@H]3O[C@H](CO)[C@@H](O)[C@H](N)[C@H]3O)[C@H](N)C[C@@H]2N)[C@H](N)[C@@H](O)[C@@H]1O [BEKANAMYCIN] | 0.39 µg/mL (≈ 0.807 µM) | 1.56 µg/mL (≈ 3.23 µM) | 3.12 µg/mL (≈ 6.46 µM) | 3.12 µg/mL (≈ 6.46 µM) | 3.12 µg/mL (≈ 6.46 µM) | 1.56 µg/mL (≈ 3.23 µM) |
| CCOC(=O)Cc1ccccc1O | 6.25 µg/mL (≈ 34.7 µM) | 12.5 µg/mL (≈ 69.4 µM) | 25 µg/mL (≈ 139 µM) | 12.5 µg/mL (≈ 69.4 µM) | 25 µg/mL (≈ 139 µM) | 12.5 µg/mL (≈ 69.4 µM) |
| COC(=O)Cc1ccccc1OC(=O)c1ccc(C)cc1 | 12.5 µg/mL (≈ 44 µM) | 25 µg/mL (≈ 87.9 µM) | > 50 µg/mL | 12.5 µg/mL (≈ 44 µM) | 3.12 µg/mL (≈ 11 µM) | 6.25 µg/mL (≈ 22 µM) |
| CN(C)[C@@H]1C(O)=C(C(N)=O)C(=O)[C@@]2(O)C(O)=C3C(=O)c4c(O)cccc4[C@@](C)(O)[C@H]3C[C@@H]12 [TETRACYCLINE] | 1.56 µg/mL (≈ 3.51 µM) | 1.56 µg/mL (≈ 3.51 µM) | 0.78 µg/mL (≈ 1.76 µM) | 1.56 µg/mL (≈ 3.51 µM) | 6.25 µg/mL (≈ 14.1 µM) | 1.56 µg/mL (≈ 3.51 µM) |
| COC(=O)c1ccc(O)cc1 [METHYLPARABEN] | 6.25 µg/mL (≈ 41.1 µM) | 6.25 µg/mL (≈ 41.1 µM) | 12.5 µg/mL (≈ 82.2 µM) | 6.25 µg/mL (≈ 41.1 µM) | 6.25 µg/mL (≈ 41.1 µM) | 25 µg/mL (≈ 164 µM) |
| CN[C@H](CC(C)C)C(=O)N[C@H]1C(=O)N[C@@H](CC(N)=O)C(=O)N[C@H]2C(=O)N[C@H]3C(=O)N[C@H](C(=O)N[C@H](C(=O)O)c4cc(O)cc(O)c4-c4cc3ccc4O)[C@H](O)c3ccc(c(Cl)c3)Oc3cc2cc(c3O[C@@H]2O[C@H](CO)[C@@H](O)[C@H](O)[C@H]2O[C@H]2C[C@](C)(N)[C@H](O)[C@H](C)O2)Oc2ccc(cc2Cl)[C@H]1O.Cl [VANCOMYCIN HYDROCHLORIDE] | 0.39 µg/mL | 0.78 µg/mL | 1.56 µg/mL | > 50 µg/mL | > 50 µg/mL | > 50 µg/mL |
| COC(=O)Cc1ccccc1OC(=O)c1ccc(Cl)cc1 | 25 µg/mL (≈ 82 µM) | > 50 µg/mL | 12.5 µg/mL (≈ 41 µM) | 25 µg/mL (≈ 82 µM) | > 50 µg/mL | 25 µg/mL (≈ 82 µM) |
| CCOC(=O)Cc1ccccc1OC(=O)Cc1ccc(Cl)cc1 | 6.25 µg/mL (≈ 18.8 µM) | 6.25 µg/mL (≈ 18.8 µM) | 12.5 µg/mL (≈ 37.6 µM) | 25 µg/mL (≈ 75.1 µM) | > 50 µg/mL | 6.25 µg/mL (≈ 18.8 µM) |
| COC(=O)Cc1ccccc1OC(=O)c1ccccc1Cl | > 50 µg/mL | 3.12 µg/mL (≈ 10.3 µM) | 25 µg/mL (≈ 82 µM) | > 50 µg/mL | 25 µg/mL (≈ 82 µM) | > 50 µg/mL |
| CCOC(=O)Cc1ccccc1OC(=O)Cc1ccc(Br)cc1 | 12.5 µg/mL (≈ 33.1 µM) | 12.5 µg/mL (≈ 33.1 µM) | > 50 µg/mL | 25 µg/mL (≈ 66.3 µM) | > 50 µg/mL | 3.12 µg/mL (≈ 8.28 µM) |
| CCOC(=O)Cc1ccccc1OC(=O)c1ccccc1Cl | > 50 µg/mL | 6.25 µg/mL (≈ 19.6 µM) | > 50 µg/mL | 25 µg/mL (≈ 78.4 µM) | 6.25 µg/mL (≈ 19.6 µM) | > 50 µg/mL |
| COC(=O)Cc1ccccc1OC(=O)Cc1ccc(Cl)cc1 | 12.5 µg/mL (≈ 39.2 µM) | 3.12 µg/mL (≈ 9.8 µM) | 25 µg/mL (≈ 78.4 µM) | > 50 µg/mL | 6.25 µg/mL (≈ 19.6 µM) | 12.5 µg/mL (≈ 39.2 µM) |
| COC(=O)Cc1ccccc1OC(=O)c1cc(OC)cc(OC)c1 | > 50 µg/mL | > 50 µg/mL | > 50 µg/mL | 6.25 µg/mL (≈ 18.9 µM) | 25 µg/mL (≈ 75.7 µM) | > 50 µg/mL |
| CCOC(=O)Cc1ccccc1OC(=O)Cc1cccc(Br)c1 | 1.56 µg/mL (≈ 4.14 µM) | > 50 µg/mL | > 50 µg/mL | 25 µg/mL (≈ 66.3 µM) | 6.25 µg/mL (≈ 16.6 µM) | > 50 µg/mL |
| CCOC(=O)Cc1ccccc1OC(=O)c1cccc([N+](=O)[O-])c1 | 0.78 µg/mL (≈ 2.37 µM) | 3.12 µg/mL (≈ 9.49 µM) | 1.56 µg/mL (≈ 4.74 µM) | 6.25 µg/mL (≈ 19 µM) | 3.12 µg/mL (≈ 9.49 µM) | 6.25 µg/mL (≈ 19 µM) |
| CCOC(=O)Cc1ccccc1OC(=O)Cc1ccc(OCC)c(OCC)c1 | 12.5 µg/mL (≈ 32.3 µM) | 3.12 µg/mL (≈ 8.09 µM) | 1.56 µg/mL (≈ 4.04 µM) | 3.12 µg/mL (≈ 8.09 µM) | 1.56 µg/mL (≈ 4.04 µM) | 3.12 µg/mL (≈ 8.09 µM) |

Next, values leading:

| MIC (Bacillus subtilis) | MIC (Staphylococcus aureus) | MIC (Enterococcus faecalis) | MIC (Pseudomonas aeruginosa) | MIC (Escherichia coli) | MIC (Enterobacter cloacae) | SMILES |
| --- | --- | --- | --- | --- | --- | --- |
| 0.78 µg/mL (≈ 2.47 µM) | 1.56 µg/mL (≈ 4.95 µM) | 1.56 µg/mL (≈ 4.95 µM) | 6.25 µg/mL (≈ 19.8 µM) | 3.12 µg/mL (≈ 9.91 µM) | 12.5 µg/mL (≈ 39.6 µM) | COC(=O)Cc1ccccc1OC(=O)c1cccc([N+](=O)[O-])c1 |
| 6.25 µg/mL (≈ 20.7 µM) | 12.5 µg/mL (≈ 41.3 µM) | 12.5 µg/mL (≈ 41.3 µM) | 25 µg/mL (≈ 82.7 µM) | 25 µg/mL (≈ 82.7 µM) | 6.25 µg/mL (≈ 20.7 µM) | COC(=O)Cc1ccccc1OC(=O)Cc1ccc(F)cc1 |
| 12.5 µg/mL (≈ 34.9 µM) | 25 µg/mL (≈ 69.8 µM) | > 50 µg/mL | 12.5 µg/mL (≈ 34.9 µM) | > 50 µg/mL | 6.25 µg/mL (≈ 17.4 µM) | CCOC(=O)Cc1ccccc1OC(=O)Cc1ccc(OC)c(OC)c1 |
| 25 µg/mL (≈ 72.6 µM) | > 50 µg/mL | > 50 µg/mL | 6.25 µg/mL (≈ 18.1 µM) | > 50 µg/mL | 6.25 µg/mL (≈ 18.1 µM) | COC(=O)Cc1ccccc1OC(=O)Cc1ccc(OC)c(OC)c1 |
| 3.12 µg/mL (≈ 9.8 µM) | 3.12 µg/mL (≈ 9.8 µM) | 12.5 µg/mL (≈ 39.2 µM) | 12.5 µg/mL (≈ 39.2 µM) | > 50 µg/mL | 25 µg/mL (≈ 78.4 µM) | COC(=O)Cc1ccccc1OC(=O)Cc1cccc(Cl)c1 |
| 12.5 µg/mL (≈ 75.2 µM) | 6.25 µg/mL (≈ 37.6 µM) | 12.5 µg/mL (≈ 75.2 µM) | 25 µg/mL (≈ 150 µM) | 12.5 µg/mL (≈ 75.2 µM) | 6.25 µg/mL (≈ 37.6 µM) | COC(=O)Cc1ccccc1O |
| > 50 µg/mL | 1.56 µg/mL (≈ 4.19 µM) | 3.12 µg/mL (≈ 8.39 µM) | 3.12 µg/mL (≈ 8.39 µM) | 1.56 µg/mL (≈ 4.19 µM) | 3.12 µg/mL (≈ 8.39 µM) | CCOc1ccc(CC(=O)Oc2ccccc2CC(=O)OC)cc1OCC |
| > 50 µg/mL | > 50 µg/mL | 25 µg/mL (≈ 72.6 µM) | 6.25 µg/mL (≈ 18.1 µM) | > 50 µg/mL | 25 µg/mL (≈ 72.6 µM) | CCOC(=O)Cc1ccccc1OC(=O)c1cc(OC)cc(OC)c1 |
| 25 µg/mL (≈ 78.4 µM) | > 50 µg/mL | 25 µg/mL (≈ 78.4 µM) | > 50 µg/mL | > 50 µg/mL | > 50 µg/mL | CCOC(=O)Cc1ccccc1OC(=O)c1ccc(Cl)cc1 |
| 3.12 µg/mL (≈ 9.39 µM) | 6.25 µg/mL (≈ 18.8 µM) | 6.25 µg/mL (≈ 18.8 µM) | > 50 µg/mL | 6.25 µg/mL (≈ 18.8 µM) | 25 µg/mL (≈ 75.1 µM) | CCOC(=O)Cc1ccccc1OC(=O)Cc1cccc(Cl)c1 |
| 1.56 µg/mL (≈ 4.3 µM) | > 50 µg/mL | 25 µg/mL (≈ 68.8 µM) | 25 µg/mL (≈ 68.8 µM) | 6.25 µg/mL (≈ 17.2 µM) | > 50 µg/mL | COC(=O)Cc1ccccc1OC(=O)Cc1cccc(Br)c1 |
| > 50 µg/mL | 25 µg/mL (≈ 79.5 µM) | > 50 µg/mL | 6.25 µg/mL (≈ 19.9 µM) | > 50 µg/mL | > 50 µg/mL | COC(=O)Cc1ccccc1OC(=O)Cc1cccc(OC)c1 |
